The target of assay [1] is T1, Helios (Homo sapiens, UniProt Q96SW2+Q9UKS7).
T1 construct: endogenous in cells; host or cells: Jurkat cells
Kind of assay: Helios Cellular Degradation Assay (Helios, Jurkat). Format: cell-based. To be noted: Jurkat cells, 72 h incubation, flow cytometry with Helios-PE antibody; read-out: Helios Jurkat IC50. Here is the method: (§1) Jurkat cells were plated at 80,000 cells/well in 40 μL RPMI+10% FBS in a 384 well cell culture plate prior to using acoustic dispensing technology for adding compound of interest. Cell cultures were incubated for 72 h at 37° C. and 5% CO2. In order to facilitate analysis, cell cultures were spun down at 200 rpm for 5 min and the supernatant was discarded. […] Subsequently, 30 μL of 1× Permeabilization buffer was added prior to centrifuging the cells and discarding the supernatant. Stained cells were resuspended in 25 μL of flow cytometry staining buffer (PBS+0.2% BSA) and analyzed using an Intellicyt Ique Plus flow cytometer.
(In flow cytometry, cells or beads pass a laser one at a time.)

Assay [2] concerns the target T2, Ikaros (Homo sapiens, UniProt Q13422+Q96SW2).
T2 construct: endogenous in cells; host or cells: Jurkat cells
The assay can be described thus: Helios Cellular Degradation Assay (Ikaros, Jurkat). To be noted: Jurkat cells, 72 h incubation, flow cytometry with Ikaros-Alexa488 antibody; read-out: Ikaros Jurkat IC50. Format: cell-based. Here is the method: as §1

The structures appear in SMILES notation.

T1 sequence (Q9UKS7 whole entry): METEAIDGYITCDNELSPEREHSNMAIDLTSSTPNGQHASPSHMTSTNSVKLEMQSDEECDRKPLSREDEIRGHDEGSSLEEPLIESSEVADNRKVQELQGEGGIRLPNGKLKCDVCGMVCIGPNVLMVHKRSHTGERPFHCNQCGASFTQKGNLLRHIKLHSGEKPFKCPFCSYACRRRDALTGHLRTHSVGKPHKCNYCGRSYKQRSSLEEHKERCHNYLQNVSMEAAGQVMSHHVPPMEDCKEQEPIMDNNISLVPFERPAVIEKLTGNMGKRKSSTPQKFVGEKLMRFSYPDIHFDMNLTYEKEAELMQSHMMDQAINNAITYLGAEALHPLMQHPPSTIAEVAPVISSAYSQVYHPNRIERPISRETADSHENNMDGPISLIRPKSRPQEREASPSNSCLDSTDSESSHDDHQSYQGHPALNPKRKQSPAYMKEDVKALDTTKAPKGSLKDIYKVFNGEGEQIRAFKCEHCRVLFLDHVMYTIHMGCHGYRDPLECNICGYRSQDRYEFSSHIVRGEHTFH
T1 sequence (Q96SW2 whole entry): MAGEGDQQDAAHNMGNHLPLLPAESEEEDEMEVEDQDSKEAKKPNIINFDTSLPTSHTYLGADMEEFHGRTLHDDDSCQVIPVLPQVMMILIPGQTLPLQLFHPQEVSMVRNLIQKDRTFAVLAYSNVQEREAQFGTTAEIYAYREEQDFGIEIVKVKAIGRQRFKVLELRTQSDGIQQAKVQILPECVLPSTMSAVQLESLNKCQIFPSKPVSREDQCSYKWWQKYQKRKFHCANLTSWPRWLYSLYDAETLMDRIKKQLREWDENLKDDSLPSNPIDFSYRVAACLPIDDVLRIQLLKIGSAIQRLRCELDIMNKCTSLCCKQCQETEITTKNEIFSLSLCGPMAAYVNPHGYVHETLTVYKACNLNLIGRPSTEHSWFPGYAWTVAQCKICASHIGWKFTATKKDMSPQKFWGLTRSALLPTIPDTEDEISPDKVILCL
T1 sequence (Q16531 whole entry partner): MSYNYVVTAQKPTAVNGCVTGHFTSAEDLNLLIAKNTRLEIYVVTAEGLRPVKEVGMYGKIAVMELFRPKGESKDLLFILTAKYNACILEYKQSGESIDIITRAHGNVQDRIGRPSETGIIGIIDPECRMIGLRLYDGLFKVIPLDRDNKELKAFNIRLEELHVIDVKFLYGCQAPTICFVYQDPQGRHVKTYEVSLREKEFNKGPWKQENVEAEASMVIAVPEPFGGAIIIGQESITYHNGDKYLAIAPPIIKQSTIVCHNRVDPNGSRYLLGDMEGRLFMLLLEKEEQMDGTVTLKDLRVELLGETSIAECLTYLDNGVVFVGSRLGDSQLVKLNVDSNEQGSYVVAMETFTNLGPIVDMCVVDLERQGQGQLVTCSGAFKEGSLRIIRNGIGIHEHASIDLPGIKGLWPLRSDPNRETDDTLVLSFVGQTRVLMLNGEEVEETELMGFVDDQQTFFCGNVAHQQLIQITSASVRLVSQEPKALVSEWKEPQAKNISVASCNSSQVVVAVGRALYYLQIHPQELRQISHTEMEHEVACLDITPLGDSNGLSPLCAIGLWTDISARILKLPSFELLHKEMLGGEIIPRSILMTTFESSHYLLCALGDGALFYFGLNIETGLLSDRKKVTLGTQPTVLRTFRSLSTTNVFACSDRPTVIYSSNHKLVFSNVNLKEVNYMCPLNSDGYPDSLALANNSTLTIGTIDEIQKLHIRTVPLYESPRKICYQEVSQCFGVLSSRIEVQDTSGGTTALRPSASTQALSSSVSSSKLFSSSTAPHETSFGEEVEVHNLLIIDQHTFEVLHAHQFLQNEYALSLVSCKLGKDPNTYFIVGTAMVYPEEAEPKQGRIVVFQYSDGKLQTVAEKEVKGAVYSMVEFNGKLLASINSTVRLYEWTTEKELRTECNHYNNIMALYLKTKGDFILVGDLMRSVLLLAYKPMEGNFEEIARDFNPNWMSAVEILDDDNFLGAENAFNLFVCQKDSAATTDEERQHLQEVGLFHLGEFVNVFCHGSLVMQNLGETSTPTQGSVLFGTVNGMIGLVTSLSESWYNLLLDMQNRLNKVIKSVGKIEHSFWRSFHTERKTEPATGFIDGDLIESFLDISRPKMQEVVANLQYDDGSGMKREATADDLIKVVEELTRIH
T2 sequence (Q13422 whole entry): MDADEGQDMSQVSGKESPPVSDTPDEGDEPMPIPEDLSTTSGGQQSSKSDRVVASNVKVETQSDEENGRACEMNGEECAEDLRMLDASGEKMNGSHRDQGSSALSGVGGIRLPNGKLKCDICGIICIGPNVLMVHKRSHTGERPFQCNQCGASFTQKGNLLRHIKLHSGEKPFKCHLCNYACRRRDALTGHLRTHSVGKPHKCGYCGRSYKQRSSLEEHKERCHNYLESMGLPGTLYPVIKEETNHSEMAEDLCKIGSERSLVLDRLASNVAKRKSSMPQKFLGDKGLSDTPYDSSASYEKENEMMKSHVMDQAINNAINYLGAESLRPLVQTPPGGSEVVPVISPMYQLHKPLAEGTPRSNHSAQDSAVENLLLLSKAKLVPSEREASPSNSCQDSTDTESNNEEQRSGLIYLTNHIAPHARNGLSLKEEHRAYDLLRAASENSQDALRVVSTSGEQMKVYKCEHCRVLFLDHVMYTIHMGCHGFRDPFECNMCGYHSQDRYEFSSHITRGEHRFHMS
T2 sequence (Q96SW2 whole entry): as the sequence (Q96SW2 whole entry) above
T2 sequence (Q16531 whole entry partner): as the sequence (Q16531 whole entry partner) above

As to `Cc1cc(N)nc(-c2ccc3c(c2F)[C@@H](C)N(C2CCC(=O)NC2=O)C3=O)c1` (stereo partly drawn) [Example 24, 3-((R)-5-(6-Amino-4-methylpyridin-2-yl)-4-fluoro-3-methyl-1-oxoisoindolin-2-yl) piperidine-2,6-dione], the DC50 is 160 nM in assay [1] and more than 10000 nM in assay [2].
In the same order, the values of `CNc1nc(-c2ccc3c(c2)[C@@H](C)N(C2CCC(=O)NC2=O)C3=O)cc(C)c1C` (single isomer, unassigned) [Example 13] are 2800 nM and more than 10000 nM.
For the compound `Cc1cc(N)nc(-c2ccc3c(c2F)CN(C2CCC(=O)NC2=O)C3=O)c1F` (stereo not shown) [Example 20, 3-(5-(6-Amino-3-fluoro-4-methylpyridin-2-yl)-4-fluoro-1-oxoisoindolin-2-yl)piperidine-2,6-dione], the DC50 in assay [2] was more than 10000 nM.
On to `Cc1cc(-c2ccc3c(c2)[C@@H](C)N(C2CCC(=O)NC2=O)C3=O)nc(N)c1C#N` (single isomer, unassigned) [Example 11], for which the DC50 in assay [1] is 6 nM; in assay [2], more than 10000 nM.
In the same order, the values of `Cc1cc(-c2ccc3c(c2F)CN(C2CCC(=O)NC2=O)C3=O)nc(N)c1C#N` (stereo not shown) [Example 3, 2-Amino-6-(2-(2,6-dioxopiperidin-3-yl)-4-fluoro-1-oxoisoindolin-5-yl)-4-methylnicotinonitrile] are 3 nM and more than 10000 nM.
In the same order, the values of `Cc1cc(-c2ccc3c(c2)C(C)N(C2CCC(=O)NC2=O)C3=O)nc(N)c1F` (single isomer, unassigned) [Example 21] are 5.8 nM and more than 10000 nM.
In the case of `Cc1cc(-c2ccc3c(c2)[C@@H](C)N(C2CCC(=O)NC2=O)C3=O)nc(N)c1C` (single isomer, unassigned) [Example 9], the results for the DC50 in assay [1] and in assay [2] were 3 nM and more than 10000 nM, respectively.
In the same order, the values of `Cc1cc(-c2ccc3c(c2F)CN(C2CCC(=O)NC2=O)C3=O)nc(N)c1F` (stereo not shown) [Example 19, 3-(5-(6-Amino-5-fluoro-4-methylpyridin-2-yl)-4-fluoro-1-oxoisoindolin-2-yl)piperidine-2,6-dione] are 3.5 nM and more than 10000 nM.
On the same counts, the results for `CNc1nc(-c2ccc3c(c2)[C@H](C)N(C2CCC(=O)NC2=O)C3=O)cc(C)c1C#N` (single isomer, unassigned) [Example 14] are 1000 nM and more than 10000 nM.
In the same order, the values of `CNc1nc(-c2ccc3c(c2)[C@H](C)N(C2CCC(=O)NC2=O)C3=O)cc(C)c1C` (stereo partly drawn) [Example 12, 3-((S)-5-(4,5-Dimethyl-6-(methylamino)pyridin-2-yl)-3-methyl-1-oxoisoindolin-2-yl) piperidine-2,6-dione] are 33 nM and more than 10000 nM.
Take `Cc1cc(-c2ccc3c(c2)C(C)N(C2CCC(=O)NC2=O)C3=O)nc(N)c1F` (single isomer, unassigned) [Example 22]: the DC50 is 200 nM in assay [1] and more than 10000 nM in assay [2].
Take `Cc1cc(-c2ccc3c(c2F)[C@@H](C)N(C2CCC(=O)NC2=O)C3=O)nc(N)c1F` (stereo partly drawn) [Example 29, 3-((R)-5-(6-amino-5-fluoro-4-methylpyridin-2-yl)-4-fluoro-3-methyl-1-oxoisoindolin-2-yl)piperidine-2,6-dione]: the results for the DC50 in assay [1] and in assay [2] were 24 nM and more than 10000 nM, respectively.
On the same counts, the results for `Cc1cc(-c2ccc3c(c2F)[C@H](C)N(C2CCC(=O)NC2=O)C3=O)nc(N)c1F` (stereo partly drawn) [Example 30, 3-((S)-5-(6-Amino-5-fluoro-4-methylpyridin-2-yl)-4-fluoro-3-methyl-1-oxoisoindolin-2-yl)piperidine-2,6-dione] are 700 nM and more than 10000 nM.
On the same counts, the results for `Cc1cc(-c2ccc3c(c2)[C@H](C)N(C2CCC(=O)NC2=O)C3=O)nc(N)c1C#N` (single isomer, unassigned) [Example 10] are 310 nM and more than 10000 nM.
In the same order, the values of `Cc1cc(-c2ccc3c(c2F)CN(C2CCC(=O)NC2=O)C3=O)nc(N)c1C` (stereo not shown) [Example 7, 3-(5-(6-Amino-4,5-dimethylpyridin-2-yl)-4-fluoro-1-oxoisoindolin-2-yl)piperidine-2,6-dione] are 1 nM and more than 10000 nM.
Turning to `Cc1cc(-c2ccc3c(c2C)CN(C2CCC(=O)NC2=O)C3=O)nc(N)c1C#N` (stereo not shown) [Example 1, 2-amino-6-(2-(2,6-dioxopiperidin-3-yl)-4-methyl-1-oxoisoindolin-5-yl)-4-methylnicotinonitrile], the DC50 in assay [1] is 1400 nM; in assay [2] it was more than 10000 nM.
In the same order, the values of `CNc1nc(-c2ccc3c(c2)[C@@H](C)N(C2CCC(=O)NC2=O)C3=O)cc(C)c1C#N` (single isomer, unassigned) [Example 15] are 57 nM and more than 10000 nM.
On the same counts, the results for `C[C@@H]1c2c(ccc(-c3cc(C(F)(F)F)cc(N)n3)c2F)C(=O)N1C1CCC(=O)NC1=O` (stereo partly drawn) [Example 25, 3-((R)-5-(6-Amino-4-(trifluoromethyl)pyridin-2-yl)-4-fluoro-3-methyl-1-oxoisoindolin-2-yl)piperidine-2,6-dione] are 1300 nM and more than 10000 nM.
Consider `Cc1cc(-c2ccc3c(c2F)[C@@H](C)N(C2CCC(=O)NC2=O)C3=O)nc(N)c1C#N` (stereo partly drawn) [Example 23, 2-Amino-6-((3R)-2-(2,6-dioxopiperidin-3-yl)-4-fluoro-3-methyl-1-oxoisoindolin-5-yl)-4-methylnicotinonitrile], for which the DC50 is 35 nM in assay [1] and more than 10000 nM in assay [2].

For the origin of these results see US11718601B2 (Bristol-Myers Squibb Company, priority 2021, dated 2023).
